# According to US6716867B1, “Use of dexmedetomidine for ICU sedation” (priority 1998, dated 2004):
# Values joined by “and” are separate entries in the source; they are usually repeats but may differ in a detail not shown here. Equal entries are not always repeated. Where two headings read alike, the source gives them in different places.
# Tests used:
# ICU patients [1] = test: Phase III multicenter ICU sedation trial, Trial 1 (propofol and morphine as rescue); conditions: for dexmedetomidine-treated patients who died: none considered related to dexmedetomidine
# Text: (§1) Two Phase III dexmedetomidine multicenter clinical trials (Trial 1 and Trial 2) have been conducted in ICU sedation in Europe and Canada. Each trial had two parts, i.e., an open-label part (Part I) and double-blind, randomized, placebo-controlled part (Part II). The trials were designed to evaluate the reduction in requirements for ICU sedation (as measured by administration of other sedative/analgesic agents) in patients receiving dexmedetomidine. The use of propofol and morphine for sedation and analgesia, respectively, was evaluated in one trial (Trial 1), and midazolam and morphine in the other trial (Trial 2).
# (§2) In Part I of the trials patients were to be administered a 6.0 μg/kg/h loading dose of dexmedetomidine over a 10-minute period, followed by an initial maintenance infusion of 0.4 μg/kg/h. During Part II of the study, patients were randomly assigned to receive either placebo (0.9% sodium chloride solution) or dexmedetomidine. […] The dexmedetomidine dosing protocol was the same as in the Part I of the study. […] Following extubation, the infusion rate was to be adjusted to achieve a Ramsay Sedation Score of 2 or higher.
# (§3) During the 10-minute loading dose, additional medication was to be avoided, but propofol (0.2-mg/kg bolus) in Trial 1 and midazolam (1-mg bolus) in Trial 2 could be given if necessary. During dexmedetomidine infusion, rescue medications were limited to propofol (0.2 mg/kg IV boluses) in Trial 1 and midazolam ([…]) in Trial 2 for sedation and morphine for pain (2-mg IV boluses). After extubation, paracetamol was to be permitted for pain as clinically indicated. Propofol and midazolam were to be given only after increasing the dexmedetomidine infusion rate. Dexmedetomidine administration in Parts I and II was to begin within 1 hour of admission to the ICU and to be continued for 6 hours after extubation to a maximum of 24 hours total study drug infusion. Patients were observed and assessed for an additional 24 hours after cessation of dexmedetomidine.
# ICU patients [2] = test: Phase III multicenter ICU sedation trial, Trial 2 (midazolam and morphine as rescue)
# Text: as §1, §2, §3
# [3] = test system: postoperative CABG patients requiring mechanical ventilation in the ICU
# Description: A double-blind, randomized, placebo-controlled study was conducted to evaluate the efficacy, safety, and titratability of dexmedetomidine in mechanically ventilated patients requiring sedation in the ICU. […] Twelve adult postoperative CABG patients requiring mechanical ventilation in the ICU who met the study selection criteria were eligible for participation.
# The selection criteria were as follows. The patients required sedation for mechanical ventilation for a minimum of 8 hours following surgery, followed by continued sedation for 6 hours after extubation. The patients were not to have been intubated longer than 24 hours to be evaluable for the test. The patients received only morphine for management for pain and received none of the following medications during study drug administration: sedating agents other than midazolam, neuromuscular blocking agents except for insertion of the endotrachael tube, epidural or spinal analgesic/anesthetic agents.
# Safety was evaluated through the monitoring of adverse events, cardiac monitoring, laboratory tests, vital signs, oxygen saturation, and concomitant medications.
# Twelve patients were randomly assigned to receive either dexmedetomidine or placebo with rescue treatment for sedation with midazolam, as clinically indicated. Patients randomized to dexmedetomidine were to receive a 10-minute loading dose of 6.0 μg/kg/h, followed by an initial maintenance infusion. The rate of maintenance infusion was 0.4 μg/kg/h. The maintenance rate of infusion could be titrated in increments of 0.1 μg/kg/h to achieve and maintain a Ramsey Sedation Score of 3 or higher. The range for the maintenance infusion was to be kept between 0.2 and 0.7 μg/kg/h. Dexmedetomidine administration was to begin within one hour after admission to the ICU and continued until 6 hours after extubation. […] The placebo was 0.9% sodium chloride solution administered the same way dexmedetomidine was administered.
# [4] = test system: postoperative coronary artery bypass graft(s) patients (CABG), requiring sedation in the ICU
# [5] = test system: postsurgical ICU patients
# Text: as §1, §2, §3
# The following 16 cases are from the above mentioned Part II of trials 1 and 2.
# [6] = case 4, immediately after extubation
structure (smiles),measurement,setting,value
"Cc1cccc([C@H](C)c2c[nH]cn2)c1C [dexmedetomidine, (+)-(S)-4-[1-(2,3-dimethylphenyl)ethyl]-1H-imidazole]","morphine required for pain, vs placebo",ICU patients [1]; Trial 1,significantly less
same,"propofol required for sedation, vs placebo",ICU patients [1]; Trial 1,significantly less
same,dexmedetomidine-treated patients who died,"ICU patients [1]; Trial 1, Part I",three
same,dexmedetomidine-treated patients who died,"ICU patients [1]; Trial 1, Part II, one placebo-treated patient died",three
same,speed of achieving sedation levels,"ICU patients [1]; Trial 1, vs placebo-treated patients who received propofol",more quickly
same,"changes in systolic blood pressure, diastolic blood pressure and heart rate",ICU patients [1]; in vivo,consistent with the known pharmacological effect of α2-agonists
same,respiratory depression,ICU patients [1]; in vivo,no clinically apparent respiratory depression
same,safety and tolerability,ICU patients [1]; in vivo,safe and well tolerated
same,"midazolam required for sedation, vs placebo",ICU patients [2]; Trial 2,significantly less
same,"morphine required for pain, vs placebo",ICU patients [2]; Trial 2,significantly less
same,deaths among dexmedetomidine-treated patients,"ICU patients [2]; Trial 2, Part I and Part II, five placebo-treated patients died",No deaths
same,speed of achieving sedation levels,"ICU patients [2]; Trial 2, vs placebo-treated patients who received midazolam",more quickly
same,"changes in systolic blood pressure, diastolic blood pressure and heart rate",ICU patients [2]; in vivo,consistent with the known pharmacological effect of α2-agonists
same,respiratory depression,ICU patients [2]; in vivo,no clinically apparent respiratory depression
same,safety and tolerability,ICU patients [2]; in vivo,safe and well tolerated
same,"midazolam for sedation or morphine for pain required, vs placebo","[3]; human, in vivo",significantly less
same,respiratory depression,"[3]; human, in vivo",no clinically apparent respiratory depression
same,safety and tolerability,"[3]; human, in vivo",safe and well tolerated
same,need for midazolam rescue for sedation,"[3]; six dexmedetomidine-sedated patients, difference to placebo in mean total midazolam dose p=0.010",did not require any midazolam
same,patients who required morphine for management of pain,"[3]; vs five of six on placebo, mean total morphine dose difference p=0.040",One of six
same,patients who required morphine for pain,"[4]; 12 patients, infusion 0.2 to 0.7 μg/kg/h",Two
same,patients with serious adverse events,"[4]; 12 patients, circulatory failure and myocardial infarction, infarction had little or no temporal relationship to dexmedetomidine",One
same,quality of sedation,[4]; dexmedetomidine as only pharmaceutical,"conveniently sedated, hemodynamically stable, and remained easily arousable"
same,blood pressure and heart rate variability,[4]; during administration of dexmedetomidine,decreased
same,time until clinical effects of sedation became evident,"[4]; iv loading 6 μg/kg/h over 10 min, then maintenance 0.2 or 0.4 μg/kg/h",15 to 30 min
same,morphine doses required while receiving dexmedetomidine,"[5]; case 1, 5 minutes before extubation",one
same,Ramsay Sedation Score,"[5]; case 1, after the first hour",3
same,Ramsay Sedation Score,"[5]; case 1, during the first hour",6
same,Ramsay Sedation Score,"[5]; case 1, later",2
same,analgesic requirement,"[5]; case 2, during the 12-hour infusion 0.2 to 0.7 μg/kg/h",required no morphine or other analgesic
same,Ramsay Sedation Score,"[5]; case 3, after the first hour",4
same,Ramsay Sedation Score,"[5]; case 3, during the first hour (baseline score, fully anaesthetized after surgery)",6
same,midazolam and morphine requirement,"[5]; case 3, maintenance 0.2 to 0.3 μg/kg/h",required no midazolam or morphine
same,Ramsay Sedation Score,"[5]; case 3, subsequently",3
same,midazolam required,[5]; [6],2 mg
same,morphine required,[5]; [6],2 mg
same,morphine dose required,"[5]; case 5, after dexmedetomidine infusion was discontinued",76 mg
same,midazolam dose received,"[5]; case 5, at 46 minutes and again at 66 minutes after start of infusion",2 mg
same,initial postoperative morphine requirements,"[5]; case 5, during dexmedetomidine infusion",24 mg
same,morphine requirement while on dexmedetomidine,[5]; case 6,required no morphine
same,morphine required,"[5]; case 6, after extubation and cessation of infusion, before discharge from the ICU",4 mg
same,"midazolam administered, total","[5]; case 6, agitation over endotracheal tube at maximum allowable dose",16 mg
same,morphine required,"[5]; case 6, first few hours after return to the ward",~50 mg
same,morphine and midazolam requirement,"[5]; case 6, first hours of infusion",required no morphine or midazolam
same,Ramsey Sedation Score,"[5]; case 6, maintenance 0.4 to 0.7 μg/kg/h",approximately 4
same,Ramsey Sedation Score,"[5]; case 7, 0.4 titrated to 0.7 μg/kg/h",approximately 4
same,morphine requirements,"[5]; case 7, first 6 hours in the ICU, graft failure with ongoing bleeding",fluctuated markedly
same,propofol and morphine requirement,"[5]; case 8, after propofol discontinued at 3 hours, dexmedetomidine tapered to 0.2 μg/kg/h",No additional propofol or morphine was required
same,Ramsey Sedation Score,"[5]; case 8, dexmedetomidine 0.7 μg/kg/h with propofol 4 mg/kg/h, oversedated",6
same,Ramsey Sedation Score,"[5]; case 9, while receiving dexmedetomidine",3
same,additional sedative and analgesia requirement,"[5]; case 10, during the infusion",required no additional sedatives and very little analgesia
same,Ramsey Sedation Score,"[5]; case 10, intubated, infusion 0.4-0.7 μg/kg/h",4
same,additional sedative requirement,"[5]; case 11, history of excessive alcohol intake, infusion between 0.3 and 0.7 μ/kg/h",no additional sedatives were required
same,anxiolysis and orientation,"[5]; case 12, high preoperative anxiety, infusion 0.2-0.5 μg/kg/h","calm, had no fear or apprehension, and was well oriented"
same,achievement of desired level of sedation,"[5]; case 13, FIG. 2",very easily achieved with little dose adjustment
same,morphine sulfate required (single dose),"[5]; case 13, at 6 hours into the study period",2 mg
same,opiate requirement,"[5]; case 14, before extubation",no opiate was required
same,Ramsey Sedation Score,"[5]; case 14, first half hour",6
same,morphine required (single injection),"[5]; case 14, moderate pain after extubation",2 mg
same,Ramsey Sedation Score,"[5]; case 14, remainder of ICU stay after titration (score of 2 or 3)",2 and 3
same,Ramsey Sedation Score,"[5]; case 15, infusion titrated",approximately 3
same,PaCO2,[5]; in vivo,stable
same,blood pressure,[5]; in vivo,transient increase
same,blood pressure (hypotension),[5]; in vivo,70/40
same,haemodynamic instability,[5]; in vivo,No evidence of haemodynamic instability
same,hemodynamic profile,[5]; in vivo,smooth without hypotension or episodes of bradycardia
same,hypotension,[5]; in vivo,one episode of moderate hypotension
same,respiratory depressant effect,[5]; in vivo,absence of a respiratory depressant effect
same,respiratory depression,[5]; in vivo,no respiratory depression
